Assay results reported in US7709492B2, “Pyrazolo-[4,3-e]-1,2,4-triazolo-[1,5-c]-pyrimidine adenosine A2a receptor antagonists” (Schering Corporation, priority 2004, dated 2010).

Target: T1, Human A2a Adenosine Receptor (Homo sapiens, UniProt P29274)
T1 construct: purchased Receptor Biology, Inc., Beltsville, Md; RB-HA2a
Assay: Human adenosine A2a receptor competition binding assay
Conditions: [3H]-SCH 58261 displacement, human A2a membranes
Method: Human Adenosine A2a and A1 Receptor Competition Binding Assay Protocol
A2a: Human A2a Adenosine Receptor membranes, Catalog #RB-HA2a, Receptor Biology, Inc., Beltsville, Md. Dilute to 17 μg/100 μl in membrane dilution buffer (see below).
Membrane dilution buffer: Dulbecco's Phosphate Buffered Saline (Gibco/BRL)+10 mM MgCl2.
Compound Dilution Buffer: Dulbecco's Phosphate Buffered Saline (Gibco/BRL)+10 mM MgCl2 supplemented with 1.6 mg/ml methyl cellulose and 16% DMSO. Prepared fresh daily.
A2a: [3H]-SCH 58261, custom synthesis, AmershamPharmacia Biotech, Piscataway, N.J. Stock is prepared at 1 nM in membrane dilution buffer. Final assay concentration is 0.5 nM.
A2a: To determine non-specific binding, add 100 nM CGS 15923 (RBI, Natick, Mass.). Working stock is prepared at 400 nM in compound dilution buffer.
Prepare 1 mM stock solutions of compounds in 100% DMSO. Dilute in compound dilution buffer. Test at 10 concentrations ranging from 3 μM to 30 pM. Prepare working solutions at 4× final concentration in compound dilution buffer.
Perform assays in deep well 96 well plates. Total assay volume is 200 μl. Add 50 μl compound dilution buffer (total ligand binding) or 50 μl CGS 15923 working solution (A2a non-specific binding) or 50 μl, NECA working solution (A1 non-specific binding) or 50 μl of drug working solution. Add 50 μl ligand stock ([3H]-SCH 58261 for A2a, [3H]-DPCPX for A1). […]

T1 sequence (P29274 whole entry): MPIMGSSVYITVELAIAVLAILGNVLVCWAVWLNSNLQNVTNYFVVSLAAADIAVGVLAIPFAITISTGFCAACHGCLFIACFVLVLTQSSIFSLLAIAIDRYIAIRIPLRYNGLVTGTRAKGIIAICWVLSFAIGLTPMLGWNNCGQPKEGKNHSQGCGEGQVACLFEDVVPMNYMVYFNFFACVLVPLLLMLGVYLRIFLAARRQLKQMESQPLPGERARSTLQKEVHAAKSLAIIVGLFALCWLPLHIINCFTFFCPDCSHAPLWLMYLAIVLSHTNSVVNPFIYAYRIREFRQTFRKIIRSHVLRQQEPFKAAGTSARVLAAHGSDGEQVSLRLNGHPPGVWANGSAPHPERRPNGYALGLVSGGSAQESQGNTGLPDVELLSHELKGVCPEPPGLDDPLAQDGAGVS

Ki: 0.3 nM
SMILES: Nc1nc2c(cnn2CCN2CCN(c3cc(-c4ncco4)ccc3F)CC2)c2nc(-c3ccccn3)nn12 [Example 12-31]
